Measured values: ChEMBL document CHEMBL2062491, “Absolute structures of monoterpenoids with a δ-lactone-containing skeleton from Ligularia hodgsonii” (J Nat Prod, 2012)

Experiments:
Type in all cases: functional, cell-based
HL-60 = test: Cytotoxicity against human HL60 cells after 48 hrs by SRB assay
SMMC-7721 = test: Cytotoxicity against human SMMC7721 cells after 48 hrs by SRB assay
HeLa = test: Cytotoxicity against human HeLa cells after 48 hrs by SRB assay

Row | SMILES | IC50 (HL-60; hl-60) [µM] | IC50 (SMMC-7721; smmc-7721) [µM] | IC50 (HeLa; hela) [µM] | IC50 (HL-60; Homo sapiens, HL-60, 48 h, read-out: IC50) [µM] | IC50 (SMMC-7721; Homo sapiens, SMMC-7721, 48 h, read-out: IC50) [µM] | IC50 (HeLa; Homo sapiens, HeLa, 48 h, read-out: IC50) [µM]
1 | COC(=O)[C@]1([C@H](C)Cl)C[C@@H](C)[C@@](C)(OC(C)=O)C(=O)O1 [LIGUHODGCINS A] | 141 | 156 | 171 |  |  | 
2 | CO[C@@]12[C@H](COC(N)=O)C3=C(C(=O)C(C)=C(N)C3=O)N1C[C@@H]1N[C@@H]12 [MITOMYCIN] |  |  |  | 1.8 | 5.6 | 3.4
3 | COC(=O)[C@]1(C)OC(=O)[C@]2(C[C@H]1C)O[C@@H]2C [LIGUHODGCINS B] | 151 | 162 | 168 |  |  | 
